Calls of active or inactive are those of the source. No cut-off for these calls is given here.
Assays:
Glucocorticoid receptor [1] = target: T1, Glucocorticoid receptor (Homo sapiens, UniProt P04150)
T1 sequence (P04150 whole entry): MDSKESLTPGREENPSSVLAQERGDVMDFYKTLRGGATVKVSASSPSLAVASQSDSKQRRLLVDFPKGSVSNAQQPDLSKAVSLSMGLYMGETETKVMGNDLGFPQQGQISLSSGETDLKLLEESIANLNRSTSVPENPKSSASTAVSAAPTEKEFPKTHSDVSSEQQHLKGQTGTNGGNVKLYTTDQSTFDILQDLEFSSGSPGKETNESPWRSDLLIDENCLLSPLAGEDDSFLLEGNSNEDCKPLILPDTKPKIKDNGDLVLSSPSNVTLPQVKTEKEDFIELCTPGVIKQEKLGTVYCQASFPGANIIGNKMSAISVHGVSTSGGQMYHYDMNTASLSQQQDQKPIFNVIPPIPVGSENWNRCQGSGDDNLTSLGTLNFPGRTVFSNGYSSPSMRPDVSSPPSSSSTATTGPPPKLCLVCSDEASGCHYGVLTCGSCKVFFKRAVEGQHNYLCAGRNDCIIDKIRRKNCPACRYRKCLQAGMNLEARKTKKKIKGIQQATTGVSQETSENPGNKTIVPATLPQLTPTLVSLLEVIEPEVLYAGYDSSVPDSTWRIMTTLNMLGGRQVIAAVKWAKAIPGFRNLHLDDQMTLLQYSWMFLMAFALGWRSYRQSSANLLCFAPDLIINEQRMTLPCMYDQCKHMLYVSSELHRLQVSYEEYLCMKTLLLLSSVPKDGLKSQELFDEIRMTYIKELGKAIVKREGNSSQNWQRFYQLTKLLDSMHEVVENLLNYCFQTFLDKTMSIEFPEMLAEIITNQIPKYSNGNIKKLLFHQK
Description: Agonist activity at GR assessed as NF-kappaB-mediated transrepression of secreted placental alkaline phosphatase gene in human A549 cells

Glucocorticoid receptor [2] = target: T1, Glucocorticoid receptor; remark: listed apart in the source
Glucocorticoid receptor [3] = target: T1, Glucocorticoid receptor; remark: listed apart in the source
Glucocorticoid receptor [4] = target: T1, Glucocorticoid receptor; remark: listed apart in the source
[5] = target: T2, Glucocorticoid receptor (Homo sapiens) (UniProt P04150); experiment: Selectivity for MMTV transactivation assay over NF-kappaB transrepression assay for GR agonism in A549 cells; format: functional, cell-based
T2 sequence (whole entry): T1 sequence (P04150 whole entry)

Homo sapiens [6] = organism: Homo sapiens; experiment: Selectivity for GR over AR by binding assay
Homo sapiens [7] = organism: Homo sapiens; experiment: Selectivity for GR over PR by binding assay
[8] = target: Estrogen receptor (Homo sapiens) (UniProt Q92731+P03372); experiment: Activity at ER; format: protein assay
Mus musculus = experiment: Anti-inflammatory activity against oxazolone-induced ear skin delayed types hypersensitivity model in topically dosed BALB/c mouse; format: functional
Homo sapiens [9] = organism: Homo sapiens; experiment: Selectivity for GR over AR by functional assay
Homo sapiens [10] = organism: Homo sapiens; experiment: Selectivity for GR over PR by functional assay
Homo sapiens [11] = organism: Homo sapiens; experiment: Selectivity for GR in NF-kappaB transrepression assay over MR antagonism; format: functional

Structure (SMILES)	IC50 (Glucocorticoid receptor [1])	IC50 (Glucocorticoid receptor [2])	IC50 (Glucocorticoid receptor [4])	further results
CCC1(CC(O)(C(=O)Nc2ccc3c(=O)onc(C)c3c2)C(F)(F)F)CCOc2ccccc21 (stereo in doubt; 38)	> 10000 nM	11.7 nM	–	–
COc1cccc2c1CCCC2CC(O)(C(=O)Nc1ccc2c(=O)onc(C)c2c1)C(F)(F)F (centres undefined)	> 1000 nM	12.6 nM	–	–
Cc1noc(=O)c2ccc(NC(=O)C(O)(CC3(C)CCCc4ccccc43)C(F)(F)F)cc12 (stereo in doubt; 35c)	> 10000 nM	251 nM	–	–
Cc1noc(=O)c2ccc(NC(=O)C(O)(CC3(C)CCCc4ccccc43)C(F)(F)F)cc12 (stereo in doubt; 35a)	> 10000 nM	316 nM	–	–
CCC1(CC(O)(C(=O)Nc2ccc3c(=O)onc(C)c3c2)C(F)(F)F)CCCCc2ccccc21 (centres undefined)	7.94 nM	10 nM	–	EC50 (Glucocorticoid receptor [3]): > 10000 nM
Cc1noc(=O)c2ccc(NC(=O)C(O)(CC3CCCc4c3cccc4[N+](=O)[O-])C(F)(F)F)cc12 (centres undefined)	> 1000 nM	12.6 nM	–	–
Cc1noc(=O)c2ccc(NC(=O)C(O)(CC3(C)CCCc4ccccc43)C(F)(F)F)cc12 (stereo in doubt; 35b)	1260 nM	7.94 nM	–	–
CCC1(CC(O)(C(=O)Nc2ccc3c(=O)onc(C)c3c2)C(F)(F)F)CCCc2ccc([N+](=O)[O-])cc21 (centres undefined)	> 10000 nM	6.31 nM	316 nM	–
Cc1noc(=O)c2ccc(NC(=O)C(O)(CC3CCCc4cccc(F)c43)C(F)(F)F)cc12 (centres undefined)	> 1000 nM	31.6 nM	–	–
CCC1(CC(O)(C(=O)Nc2ccc3c(=O)onc(C)c3c2)C(F)(F)F)CCCc2c([N+](=O)[O-])cccc21 (centres undefined)	> 10000 nM	5.01 nM	251 nM	–
Cc1noc(=O)c2ccc(NC(=O)C(O)(CC3CCCc4cc([N+](=O)[O-])ccc43)C(F)(F)F)cc12 (centres undefined)	> 1000 nM	126 nM	–	–
Cc1noc(=O)c2ccc(NC(=O)C(O)(CC3(C)CCCc4ccccc43)C(F)(F)F)cc12 (stereo in doubt; 35d)	20 nM	10 nM	398 nM	EC50 (Glucocorticoid receptor [3]): > 10000 nM
Cc1noc(=O)c2ccc(NC(=O)C(O)(CC3(C4CCC4)CCCc4ccccc43)C(F)(F)F)cc12 (centres undefined)	4.9 nM	9.55 nM	166 nM	EC50 (Glucocorticoid receptor [3]): 17.4 nM
Cc1noc(=O)c2ccc(NC(=O)C(O)(CC3(C(C)(C)C)CCCc4ccccc43)C(F)(F)F)cc12 (centres undefined)	> 10000 nM	11.5 nM	776 nM	–
Cc1noc(=O)c2ccc(NC(=O)C(O)(CC3CCCc4c(F)cccc43)C(F)(F)F)cc12 (centres undefined)	> 1000 nM	15.8 nM	501 nM	–
CCCCC1(CC(O)(C(=O)Nc2ccc3c(=O)onc(C)c3c2)C(F)(F)F)CCCc2ccccc21 (centres undefined)	6.61 nM	3.09 nM	–	EC50 (Glucocorticoid receptor [3]): > 1000 nM
Cc1cccc2c1CCCC2CC(O)(C(=O)Nc1ccc2c(=O)onc(C)c2c1)C(F)(F)F (stereo in doubt; 19b)	> 1000 nM	3.16 nM	200 nM	–
Cc1noc(=O)c2ccc(NC(=O)C(O)(CC3CCCc4ccccc43)C(F)(F)F)cc12 (centres undefined)	> 1000 nM	7.94 nM	–	–
CCC1(CC(O)(C(=O)Nc2ccc3c(=O)onc(C)c3c2)C(F)(F)F)CCCc2cc([N+](=O)[O-])ccc21 (centres undefined)	> 10000 nM	7.94 nM	794 nM	–
Cc1noc(=O)c2ccc(NC(=O)C(O)(CC3(c4ccccc4)CCCc4ccccc43)C(F)(F)F)cc12 (centres undefined)	> 10000 nM	14.5 nM	1380 nM	–
Cc1noc(=O)c2ccc(NC(=O)C(O)(CC3CCCc4c(Br)cccc43)C(F)(F)F)cc12 (stereo in doubt; 23b)	–	39.8 nM	–	–
Cc1noc(=O)c2ccc(NC(=O)C(O)(CC3(C4CC4)CCCc4ccccc43)C(F)(F)F)cc12 (centres undefined)	9.55 nM	4.68 nM	204 nM	EC50 (Glucocorticoid receptor [3]): 39.8 nM

Structure (SMILES)	IC50 (Glucocorticoid receptor [1])	IC50 (Glucocorticoid receptor [2])	IC50 (Glucocorticoid receptor [4])	further results
Cc1noc(=O)c2ccc(NC(=O)C(O)(CC3(C(C)C)CCCc4ccccc43)C(F)(F)F)cc12 (centres undefined)	2.95 nM	4.79 nM	129 nM	EC50 (Glucocorticoid receptor [3]): 18.6 nM; Efficacy [5]: 34%
Cc1noc(=O)c2ccc(NC(=O)C(O)(CC3(CC(C)C)CCCc4ccccc43)C(F)(F)F)cc12 (centres undefined)	–	–	–	EC50 (Glucocorticoid receptor [3]): > 1000 nM
Cc1noc(=O)c2ccc(NC(=O)C(O)(CC3CCCc4c(C#N)cccc43)C(F)(F)F)cc12 (centres undefined)	> 1000 nM	15.8 nM	–	–
Cc1noc(=O)c2ccc(NC(=O)C(O)(CC3CCCc4ccc(F)cc43)C(F)(F)F)cc12 (centres undefined)	> 1000 nM	15.8 nM	–	–
Cc1cccc2c1CCCC2CC(O)(C(=O)Nc1ccc2c(=O)onc(C)c2c1)C(F)(F)F (stereo in doubt; 19a)	–	20 nM	794 nM	–
Cc1noc(=O)c2ccc(NC(=O)C(O)(CC3CCCc4c(Br)cccc43)C(F)(F)F)cc12 (stereo in doubt; 23f)	> 1000 nM	631 nM	–	–
CCC1(CC(O)(C(=O)Nc2ccc3c(=O)onc(C)c3c2)C(F)(F)F)CCOc2ccccc21 (stereo in doubt; 37)	–	16.6 nM	–	–
Cc1noc(=O)c2ccc(NC(=O)C(O)(CC3CCCc4c(Cl)cccc43)C(F)(F)F)cc12 (stereo in doubt; 20a)	–	15.8 nM	–	–
CCC(CC)C1(CC(O)(C(=O)Nc2ccc3c(=O)onc(C)c3c2)C(F)(F)F)CCCc2ccccc21 (centres undefined)	1.2 nM	5.25 nM	66.1 nM	Selectivity ratio (Homo sapiens [6]): > 50; EC50 (Glucocorticoid receptor [3]): 6.31 nM; Selectivity ratio (Homo sapiens [7]): 10; Activity [8]: inactive; ED50 (Mus musculus): 0.35 µg; Selectivity ratio (Homo sapiens [9]): > 50; Selectivity ratio (Homo sapiens [10]): 10; Selectivity ratio (Homo sapiens [11]): > 100; Efficacy [5]: 50%
Cc1noc(=O)c2ccc(NC(=O)C(O)(CC3CCCc4ccc([N+](=O)[O-])cc43)C(F)(F)F)cc12 (centres undefined)	> 1000 nM	20 nM	–	–
C[C@@H]1C[C@H]2[C@@H]3CCC4=CC(=O)C=C[C@]4(C)[C@@]3(F)[C@@H](O)C[C@]2(C)[C@@]1(O)C(=O)CO [DEXAMETHASONE]	–	–	–	ED50 (Mus musculus): 0.27 µg
CCCC1(CC(O)(C(=O)Nc2ccc3c(=O)onc(C)c3c2)C(F)(F)F)CCCc2ccccc21 (centres undefined)	4.68 nM	5.62 nM	25.1 nM	EC50 (Glucocorticoid receptor [3]): 20 nM; Efficacy [5]: 67%
Cc1noc(=O)c2ccc(NC(=O)C(O)(CC3(C4CCCCC4)CCCc4ccccc43)C(F)(F)F)cc12 (centres undefined)	3.31 nM	8.51 nM	200 nM	EC50 (Glucocorticoid receptor [3]): 20.9 nM
Cc1noc(=O)c2ccc(NC(=O)C(O)(CC3CCCc4c(N)cccc43)C(F)(F)F)cc12 (centres undefined)	> 1000 nM	25.1 nM	2000 nM	–
Cc1noc(=O)c2ccc(NC(=O)C(O)(CC3CCCc4c(Cl)cccc43)C(F)(F)F)cc12 (stereo in doubt; 20b)	> 1000 nM	5.01 nM	398 nM	–
Cc1noc(=O)c2ccc(NC(=O)C(O)(CC3CCCc4cc(F)ccc43)C(F)(F)F)cc12 (centres undefined)	> 1000 nM	12.6 nM	–	–
CCC1(CC(O)(C(=O)Nc2ccc3c(=O)onc(C)c3c2)C(F)(F)F)CCCc2ccccc21 (centres undefined)	5.01 nM	6.17 nM	200 nM	EC50 (Glucocorticoid receptor [3]): 9.12 nM; ED50 (Mus musculus): 5 µg
Cc1noc(=O)c2ccc(NC(=O)C(O)(CC3CCCc4c(Br)cccc43)C(F)(F)F)cc12 (stereo in doubt; 23e)	–	25.1 nM	–	–
Cc1noc(=O)c2ccc(NC(=O)C(O)(CC3CCCc4c(Br)cccc43)C(F)(F)F)cc12 (stereo in doubt; 23a)	–	15.8 nM	794 nM	–
Cc1noc(=O)c2ccc(NC(=O)[C@](O)(C[C@@]3(C4CCCC4)CCCc4ccccc43)C(F)(F)F)cc12	2.04 nM	8.13 nM	53.7 nM	Selectivity ratio (Homo sapiens [6]): > 50; EC50 (Glucocorticoid receptor [3]): 17.8 nM; Activity [8]: inactive; ED50 (Mus musculus): 0.05 µg; Selectivity ratio (Homo sapiens [9]): > 50; Selectivity ratio (Homo sapiens [11]): > 100
Cc1noc(=O)c2ccc(NC(=O)C(O)(CC3CCCc4c(Br)cccc43)C(F)(F)F)cc12 (stereo in doubt; 23c)	–	6.31 nM	–	–
